The test system of one experiment is MCF-7 cells. Briefly: In vitro cytotoxicity, MCF-7 cells, 72 hour exposure, surviving fraction by plating efficiency. The experiment is classed as cell-based. Conditions: MCF-7 (human breast tumor) cells, read-out: IC50 value towards MCF-7 cells. On the procedure: (§1) Disulfide-containing and thiol-containing PEGylated taxane drugs of the invention can be evaluated for their ability to suppress proliferation of various unwanted cell lines in vitro. For example, cell lines such as the human lung carcinoma line A549, the human breast tumor line MCF-7, and the Burkitt's lymphoma line Namalwa can easily be used for the assessment of cytotoxicity of these compounds. Cells to be evaluated can be exposed to the compounds for 72 hours and the surviving fractions of cells measured in direct assays by known methods. IC50 values can then be calculated from the results of the assays.
The sulfide, disulfide, and sulfhydryl containing PEGylated taxane drugs of the invention can be evaluated for their ability to suppress proliferation of various human tumor cell lines in vitro. Two adherent cell lines A549(human lung carcinoma) and MCF-7 (human breast tumor) and the non-adherent cell line, Namalwa (Burkitt's lymphoma) are used for the assessment of cytotoxicity of these compounds. Cells are exposed to the compounds for 72 hours and the surviving fractions of cells are measured in direct assays.

The next experiment has as its system A-431 cells. In words: In vitro cytotoxicity, A-431 cells. Particulars: read-out: IC50 towards A-431 cells. The experiment is classed as cell-based. As for the experimental part: as §1
Cytotoxicity of the PEGylated taxanes and their antibody conjugates to non-adherent cell lines such as Namalwa and HL-60 can be measured by back-extrapolation of cell proliferation curves as described in Goldmacher et al, 135 J. Immunol. 3648-3651 (1985). Cytotoxicity of these compounds to adherent cell lines such as SKBR3 and A431 can be determined by clonogenic assays as described in Goldmacher et al, 102 J. Cell Biol. 1312-1319 (1986).

A word on the IC50: it is the point on the concentration scale where inhibition reaches its midpoint.

In the case of `COc1ccc(OC)c(C(=O)OC2C3C4(OC(C)=O)COC4CC(OC(=O)CCOCCOCCOCCOCCSSC)C3(C)C(=O)C(O)C3=C(C)C(OC(=O)C(O)C(C=C(C)C)NC(=O)OC(C)(C)C)CC2(O)C3(C)C)c1` (stereo not drawn) [taxoid 20, 3′-Dephenyl-3′-(isobutenyl)-2-debenzoyl-2-(2,5-dimethoxybenzoyl)-7-(15-methyldithio-4,7,10,13-tetraoxapentadecanoyl)-docetaxel], in the experiment with MCF-7 cells, the IC50 was 320 pM.
As to `COc1ccc(OC)c(C(=O)OC2C3C4(OC(C)=O)COC4CC(O)C3(C)C(=O)C(OC(=O)CCOCCOCCOCCOCCSSC)C3=C(C)C(OC(=O)C(O)C(C=C(C)C)NC(=O)OC(C)(C)C)CC2(O)C3(C)C)c1` (stereo not drawn) [taxoid 17, 3′-Dephenyl-3′-(isobutenyl)-2-debenzoyl-2-(2,5-dimethoxybenzoyl)-10-(15-methyldithio-4,7,10,13-tetraoxapentadecanoyl)-docetaxel], the IC50 was 330 pM in the experiment on A-431 cells and 63 pM in the experiment with MCF-7 cells.

(Values after patent US6596757B1, “Cytotoxic agents comprising polyethylene glycol-containing taxanes and their therapeutic use” (Immunogen Inc., priority 2002, dated 2003).)
